Patent US20110105576A1 (priority 2008, published 2011)
Like-named read-outs stand apart in the source and are kept apart here.

Key:
[1] = tested on: Fusarium graminearum (ear rot of maize); type: cell-based; settings: solo, 48 hrs
[2] = tested on: Fusarium graminearum (ear rot of maize); type: cell-based; settings: solo, 48 hrs; remark: listed apart in the source

SMILES: CCCN(CCOc1c(Cl)cc(Cl)cc1Cl)C(=O)n1ccnc1 [A, prochloraz]
- Observed control in % ([1]; 0.004 ppm (mg a.i./liter final medium)): 0%
- Observed control in % ([1]; 0.008 ppm): 3%
- Observed control in % ([1]; 0.016 ppm): 6%
- Observed control in % ([1]; 0.031 ppm): 11%
- Observed control in % ([1]; 0.063 ppm): 25%
- Observed control in % ([1]; 0.125 ppm): 86%
- Observed control in % ([1]; 0.25 ppm): 94%
- Observed control in % ([1]; 0.5 ppm): 96%
- Observed control in % ([1]; 1.0 ppm): 96%
- Observed control in % ([1]; 2.0 ppm): 96%

SMILES: CC1(C)CCC(Cc2ccc(Cl)cc2)C1(O)Cn1cncn1 (stereo not drawn) [B, metconazole]
- Observed control in % ([2]; 0.008 ppm): 3%
- Observed control in % ([2]; 0.25 ppm): 93%
- Observed control in % ([2]; 0.5 ppm): 95%
- Observed control in % ([2]; 2.0 ppm): 96%
- Observed control in % ([1]; 0.008 ppm): 3%
- Observed control in % ([1]; 0.25 ppm): 93%
- Observed control in % ([1]; 0.5 ppm): 95%
- Observed control in % ([1]; 2.0 ppm): 96%
